# Assay results reported in patent US12691109B2, “Bifunctional aggregation-induced emission luminogen for monitoring and killing of multidrug-resistant bacteria” (The Hong Kong University of Science and Technology, priority 2018, dated 2026).
# How the values were obtained:
# Test in all cases: Morphological changes of bacteria by FE-SEM and FEHR-TEM
# Assay type in all cases: cell-based
# MDR S. epidermidis = conditions: TriPE-NT without or with light irradiation (4 mW cm^−2, 30 min)
# From the text: (§1) FIGS. 24A-E show images of TriPE-NT-induced morphological changes of E. coli, MDR E. coli, S. epidermidis and MDR S. epidermidis with white light irradiation by FE-SEM and FEHR-TEM, bacteria without treatment were set as controls. […] FIG. 24D is a graph plotting elemental curve measured on the super-thin slices of TriPE-NT-treated E. coli from the region marked by the rectangle in FIG. 24C. FIG. 24 E is a graph plotting the elemental curve measured on the super-thin slices of TriPE-NT-treated S. epidermidis from the region marked by rectangle in FIG. 24C.
# (§2) To gain more insights into the TriPE-NT-bacteria interactions, FE-SEM and field-emission high resolution transmission electron microscope (FEHR-TEM) were used to visualize the morphological changes of the bacteria under TriPE-NT treatment, selecting E. coli (G−), MDR E. coli (G−), and S. epidermidis (G+), MDR S. epidermidis (G+) as representatives.
# E. coli = system: E. coli
# From the text: as §1, §2
# S. epidermidis = conditions: TriPE-NT without or with light irradiation (4 mW cm^−2, 30 min)
# From the text: as §1, §2
# MDR E. coli = system: MDR E. coli
# From the text: as §1, §2
# [1] = TriPE-NT in the absence of white light
# [2] = TriPE-NT with light irradiation
compound,measurement,setting,value
COc1ccc(C(=Cc2ccc(-c3ccc4c5c(cccc35)C(=O)N(CCCCn3c[n+](Cc5ccc(F)cc5F)cn3)C4=O)cc2)c2ccc(OC)cc2)cc1 [TriPE-NT],morphology of MDR S. epidermidis,MDR S. epidermidis,wrinkled bacterial cell wall
same,morphology of E. coli,E. coli; [1],obvious rough surface and damaged cell wall
same,morphology of E. coli,E. coli; [2],cell wall fragmentations
same,morphology of S. epidermidis,S. epidermidis,wrinkled bacterial cell wall
same,morphology of MDR E. coli,MDR E. coli; [1],obvious rough surface and damaged cell wall
same,morphology of MDR E. coli,MDR E. coli; [2],cell wall fragmentations
